In patent publication US8912121B2, “Herbicidal compositions comprising 4-amino-3-chloro-5-fluoro-6-(4-chloro-2-fluoro-3-methoxyphenyl)pyridine-2-carboxylic acid or a derivative thereof and certain PS II inhibitors” (Dow Agrosciences LLC, priority 2012, dated 2014):

Test system: LEFCH (Leptochloa chinensis, Chinese sprangletop)
Experiment: Postemergence foliar-applied mixtures, direct seeded rice, greenhouse
Type: in vivo, Leptochloa chinensis (L.) Nees
Details: 22 DAA
Excerpt: Seeds or nutlets of the desired test plant species were planted in a soil matrix prepared by mixing a loam or sandy loam soil (e.g., 28.6 percent silt, 18.8 percent clay, and 52.6 percent sand, with a pH of about 5.8 and an organic matter content of about 1.8 percent) and calcareous grit in an 80 to 20 ratio. The soil matrix was contained in plastic pots with a volume of 1 quart and a surface area of 83.6 square centimeters (cm^2). When required to ensure good germination and healthy plants, a fungicide treatment and/or other chemical or physical treatment was applied. The plants were grown for 8-22 days in a greenhouse with an approximate 14 h photoperiod which was maintained at about 29° C. during the day and 26° C. during the night. Nutrients (Peters Excel® 15-5-15 5-Ca 2-Mg and iron chelate) were applied in the irrigation solution as needed and water was added on a regular basis. Supplemental lighting was provided with overhead metal halide 1000-Watt lamps as necessary. The plants were employed for testing when they reached the first through fourth true leaf stage. […]
Treatment requirements were calculated based upon the rates being tested, the concentration of active ingredient or acid equivalent in the formulation, and a 12 mL application volume at a rate of 187 L/ha.
For treatments comprised of formulated compounds, measured amounts of compounds were placed individually in 25 mL glass vials and diluted in a volume of 1.25% (v/v) Agri-Dex® crop oil concentrated to obtain 12× stock solutions. […]
For treatments comprised of formulated and technical compounds, weighed amounts of the technical materials were placed individually in 25 mL glass vials and dissolved in a volume of 97:3 v/v acetone/DMSO to obtain 12× stock solutions, and measured amounts of the formulated compounds were placed individually in 25 mL glass vials and diluted in a volume of 1.5% (v/v) crop oil concentrate or water to obtain 12× stock solutions. […]

COc1c(Cl)ccc(-c2nc(C(=O)OCc3ccccc3)c(Cl)c(N)c2F)c1F [Compound A Benzyl Ester, benzyl ester of 4-amino-3-chloro-5-fluoro-6-(4-chloro-2-fluoro-3-methoxy-phenyl)pyridine-2-carboxylic acid]
Visual Weed Control (%) Obs (8 g ae/ha): 35%
Visual Weed Control (%) Obs (16 g ae/ha): 40%
